Data taken from patent US20060147479A1, “Angiogenic medical cyanoacrylate adhesive” (priority 2002, published 2006).

Experiments:
[1] = system: angiogenesis; settings: cited from earlier work
[2] = Bond strength of tributyrin/cyanoacrylate blend on costal cartilage (Nene MC3000); format: physicochemical; settings: 5% to 50% (w/w) tributyrin in cyanoacrylate; held 1 minute, cured an additional hour in aqueous conditions
Experimental: 0.5 g of the sterile tributyrin was added to cyanoacrylate (9.5 g) to produce a 5% (w/w) blend in a sterile plastic universal tube. This was mixed for 2 minutes to ensure a homogenous blend. 40 μl aliquots of the blended adhesive were applied to freshly cut surfaces of costal cartilage. The two surfaces were held together for 1 minute allowing fixation and curing was allowed to continue for an additional hour in aqueous conditions. The bond strength was tested using a Nene MC3000 machine, where the applied force required to separate the bonded pieces of cartilage was recorded.

[3] = Premature curing of cyanoacrylate by angiogenic agent; format: physicochemical; settings: in combination with cyanoacrylate
[4] = Release of tributyrin from cured blended adhesive disks into water, gas chromatography; format: physicochemical; settings: 5% w/w tributyrin cyanoacrylate sample; 2 ml water, 50° C., 1, 5 or 7 days with continuous agitation
Experimental: 0.5g of the sterile tributyrin was added to cyanoacrylate (9.5 g) to produce a 5% (w/w) blend in a sterile plastic universal tube. This was mixed for 2 minutes to ensure a homogenous blend. Small disks of the blended adhesive were cast onto a basic solution (dilute triethylamine 0.1% aq). The disks were removed, washed briefly and dried. The disks were then placed into 2 ml water and stored at 50° C. for 1, 5 or 7 days with continuous agitation. The water was removed then added to 2 mls dichloromethane in order to extract any released tributyrin. The dichloromethane layer was analysed using gas chromatography and the amount of tributyrin recorded. The disks were dried and then placed into fresh water at 50° C. for an additional day. The amount of tributyrin released into the fresh water was measured as described for the first samples.

## CCCC(=O)O [butyric acid, butanoic acid]
[1]
  local release sufficient to achieve the desired angiogenic effect: 10 to 1000 ng

## CCCC(=O)OCC(COC(=O)CCC)OC(=O)CCC [tributyrin, glcerol tributyrate; 1,2,3-(propyl)tributanoate]
[2]
  adhesive property (bond strength; applied force required to separate the bonded pieces of cartilage): without an unacceptable loss of adhesive property
[3]
  premature cure of cyanoacrylate: do not cause cyanoacrylate to prematurely cure
[4]
  tributyrin released from cured adhesive disks: released from a 5% w/w tributyrin cyanoacrylate sample over a 7 day period
